Patent US11180452B2, “Methods and compositions for selectively inhibiting pathogenic microbes” (priority 2019, dated 2021)
In brackets after ≈: the same amount, converted by molar mass. Read-outs that look alike come from different tables or passages of the source.

Key:
C. albicans = experiment: Candida albicans MIC / MFC; type: cell-based
[1] = MIC with and without 2-ketobutyrate (synergy); type: cell-based
Bacillus thuringiensis = type: cell-based; settings: for MIC: Bacillus thuringiensis
[2] = system: Burkholderia thailandensis Brett et al ATCC: 700388; experiment: microbe, parasite or virus in culture; type: cell-based
[3] = system: Francisella tularensis strains; experiment: microbe, parasite or virus in culture; type: cell-based
Roseomonas mucosa (RM) = experiment: MIC against skin commensal Roseomonas mucosa; type: cell-based; settings: read-out: Skin Commensals MIC Roseomonas mucosa (RM)
Trichophyton rubrum = experiment: MIC against Trichophyton rubrum; type: cell-based
[4] = system: Staphylococcus aureus (SA); experiment: MIC against pathogen Staphylococcus aureus (Table 1); type: cell-based; settings: read-out: Pathogens MIC Staphylococcus aureus (SA)
HepG2 cells = experiment: SYTOX assay on HepG2 cells; type: cell-based; settings: staining in treated cells
Candida glabrata = Candida glabrata MIC / MFC; type: cell-based; settings: Nakaseomyces glabratus; for MIC: read-out: MIC
[5] = system: Staphylococcus epidermidis (SE); experiment: MIC against skin commensal Staphylococcus epidermidis; type: cell-based; settings: read-out: Skin Commensals MIC Staphylococcus epidermidis (SE)
N. gonorrhoeae = N. gonorrhoeae MIC; type: cell-based; settings: Neisseria gonorrhoeae, strain #167
[6] = system: Francisella tularensis subsp. Holarctica Strain LVSR NR-597; experiment: microbe, parasite or virus in culture; type: cell-based
Bacillus subtilis = Bacillus subtilis MIC / MBC; type: cell-based; settings: for MIC: Bacillus subtilis
NoSpin HepaRG cells = experiment: HepaRG cytotoxicity, MTT assay EC50; type: cell-based, human; settings: Homo sapiens, HepaRG; cytotoxicity EC50, Table 9
[7] = HepaRG cytotoxicity, MTT assay EC50; type: cell-based, human; settings: human, NoSpin HepaRG cells

Nc1ccccc1Sc1c[nH]c2ccc(Br)cc12 [Compound 174M, 2-((5-bromo-1H-indol-3-yl)thio)aniline]
MFC (C. albicans; C. albicans strain #761, read-out: MFC): 25 µg/mL (≈ 78.3 µM) | MIC (C. albicans; C. albicans strain #761, read-out: MIC): 12.5 µg/mL (≈ 39.2 µM) | MFC (C. albicans; C. albicans strain #762, read-out: MFC): 25 µg/mL (≈ 78.3 µM) | MIC (C. albicans; C. albicans strain #762, read-out: MIC): 3.13 µg/mL (≈ 9.8 µM) | synergistic effect with 2-ketobutyrate [1]: synergistic effect | MIC ([1]; with 200 μg/mL 2-ketobutyrate): 0.781 µg/mL | MIC ([1]; with 800 μg/mL 2-ketobutyrate): less than 0.39 μg/mL | MIC ([1]; without ketobutyrate): 3.124 µg/mL | MBC (Bacillus thuringiensis; Bacillus thuringiensis Berliner ATCC: 10792): 5 µg/mL (≈ 15.7 µM) | MIC (Bacillus thuringiensis; ATCC10792, […]): 0.625 µg/mL (≈ 1.96 µM) | MIC (Bacillus thuringiensis; Bacillus thuringiensis Berliner ATCC: 10792, read-out: MIC): 1.25 µg/mL (≈ 3.92 µM) | MIC (Bacillus thuringiensis; strain B-1596): 1.25 µg/mL (≈ 3.92 µM) | MBC [2]: > 150 µg/mL | MIC [2]: 150 µg/mL (≈ 470 µM) | MIC50 [3]: 4 µg/mL (≈ 12.5 µM) | MIC ([3]; read-out: F. tularensis BSL-3 MIC, Strain 100): > 8 µg/mL | MIC ([3]; read-out: F. tularensis BSL-3 MIC, strain HN-63): 4 µg/mL (≈ 12.5 µM) | MIC ([3]; read-out: F. tularensis BSL-3 MIC, strain LVS): 2 µg/mL (≈ 6.27 µM) | MIC ([3]; read-out: F. tularensis BSL-3 MIC, strain MA00-2987): 2 µg/mL (≈ 6.27 µM) | MIC ([3]; read-out: F. tularensis BSL-3 MIC, strain MO #1): 2 µg/mL (≈ 6.27 µM) | MIC ([3]; read-out: F. tularensis BSL-3 MIC, strain MO #2): 1.67 µg/mL (≈ 5.23 µM) | MIC ([3]; read-out: F. tularensis BSL-3 MIC, strain MO #3): 4 µg/mL (≈ 12.5 µM) | MIC ([3]; read-out: F. tularensis BSL-3 MIC, strain OR-96): 4 µg/mL (≈ 12.5 µM) | MIC ([3]; read-out: F. tularensis BSL-3 MIC, strain SCHU S4): 8 µg/mL (≈ 25.1 µM) | MIC ([3]; read-out: F. tularensis BSL-3 MIC, strain WY-96): 4 µg/mL (≈ 12.5 µM) | MIC ([3]; read-out: MAX, highest MIC over the Francisella tularensis strains): > 8 µg/mL | MIC ([3]; read-out: MIN, lowest MIC over the Francisella tularensis strains): 1.67 µg/mL (≈ 5.23 µM) | MIC (Roseomonas mucosa (RM)): > 50 µg/mL | MIC (Trichophyton rubrum; Trichophyton rubrum Castellani Sabouraud ATCC: 28188, read-out: MIC): 0.99 µg/mL (≈ 3.1 µM) | MIC (Trichophyton rubrum; Trichophyton rubrum, read-out: Pathogens MIC Trichophyton rubrum (TR)): 0.9 µg/mL (≈ 2.82 µM) | MIC [4]: 2 µg/mL (≈ 6.27 µM) | cell membrane damage of HepG2 cells (HepG2 cells): no cell membrane damage | MFC (Candida glabrata; C. glabrata strain #325, read-out: MFC): > 50 µg/mL | MIC (Candida glabrata; C. glabrata strain #325): 25 µg/mL (≈ 78.3 µM) | MIC (Candida glabrata; C. glabrata strain #584 (Table 7)): 12.5 µg/mL (≈ 39.2 µM) | MIC (Candida glabrata; Candida glabrata #584 (Table 2)): 12.5 µg/mL (≈ 39.2 µM) | MIC [5]: 16 µg/mL (≈ 50.1 µM) | MIC (N. gonorrhoeae): 1.56 µg/mL (≈ 4.89 µM) | MIC [6]: 2.5 µg/mL (≈ 7.83 µM) | MBC (Bacillus subtilis; Bacillus subtilis NRRL: B-571, minimum bactericidal concentration): 10 µg/mL (≈ 31.3 µM) | MIC (Bacillus subtilis; Bacillus subtilis (Ehrenberg 1835) Cohn 1872 NRRL: B-571, read-out: MIC): 0.63 µg/mL (≈ 1.97 µM) | MIC (Bacillus subtilis; strain B-571 (Table 4), read-out: Bacillus subtilis MIC): 0.625 µg/mL (≈ 1.96 µM) | MIC (Bacillus subtilis; strain B-1985, read-out: Bacillus subtilis MIC): 5 µg/mL (≈ 15.7 µM) | MIC (Bacillus subtilis; strain B-3665, read-out: Bacillus subtilis MIC): 10 µg/mL (≈ 31.3 µM) | MIC (Bacillus subtilis; strain B-14322, read-out: Bacillus subtilis MIC): 2.5 µg/mL (≈ 7.83 µM) | MIC (Bacillus subtilis; strain B-41090, read-out: Bacillus subtilis MIC): 5 µg/mL (≈ 15.7 µM) | MIC (Bacillus subtilis; strain B-41581, read-out: Bacillus subtilis MIC): 5 µg/mL (≈ 15.7 µM) | MIC (Bacillus subtilis; strain BD-594, read-out: Bacillus subtilis MIC): 5 µg/mL (≈ 15.7 µM) | EC50 (NoSpin HepaRG cells): 26.5 µg/mL (≈ 83 µM) | EC50 at 48 h [7]: 85 µg/mL (≈ 266 µM)
